Source: publication PMC4471590 (Chemistry (Weinheim an Der Bergstrasse, Germany), 2015)

Target: LytA239–252 (Streptococcus pneumoniae, UniProt P06653)
Test: near-UV CD titration, ellipticity at […] nm
Assay type: binding

`C[N+](C)(C)CCO` [choline] gave a Kd of 80 ± 10 mM.
